Some test systems named below: LOX IMVI melanoma; EKVX NSCLC; OVCAR-5 ovarian; OVCAR-8 ovarian; NCI-H522 lung; M14 melanoma; NCI-H226 lung; SK-MEL-28 melanoma.
Assay in all cases: DTP human tumour cell line panel, 48 h

This is an account of results in PubChem BioAssay (NCI).

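Test compounds were applied to cells in 96-well plates for 48 hours at 5 doses. GI50 = concentration required for 50% inhibition of growth. TGI is the concentration that stops growth completely.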 A value given as a limit tells only on which side of the number the result lay.

Usually TGI stands for the concentration giving total growth inhibition. A lower TGI goes with more potent growth arrest. By GI50 is commonly meant the concentration at which growth is held to half of that of the control.

As for `CC(=O)Nc1ccc(/C=c2\sc3nnc(/C=C/c4ccccc4)n3c2=O)cc1`, the TGI in the assay with LOX IMVI melanoma, in the assay with EKVX NSCLC, in the assay on OVCAR-5 ovarian, with OVCAR-8 ovarian, in the assay with NCI-H522 lung and in the assay with M14 melanoma was over 50 µM throughout. For the same compound, the TGI in the assay with NCI-H226 lung and with SK-MEL-28 melanoma was over 50 µM each time.
Regarding `Clc1ccc2c(NCCCN3CCN(c4nc(-n5ccnc5)nc5ccccc45)CC3)ccnc2c1`, the GI50 is 1.84 µM in the assay on LOX IMVI melanoma; over 28.4 µM in the assay with EKVX NSCLC; over 100 µM with OVCAR-5 ovarian; over 100 µM with NCI-H226 lung; 1.8 µM in the assay on SK-MEL-28 melanoma. For the same compound, the TGI with LOX IMVI melanoma is 3.69 µM; in the assay with EKVX NSCLC it was over 100 µM; with OVCAR-5 ovarian, over 100 µM; in the assay with NCI-H522 lung it was over 22.3 µM; in the assay with NCI-H226 lung it was over 100 µM; in the assay with SK-MEL-28 melanoma, 3.34 µM.
Take `COc1ccc(-c2c(N)[n+]([O-])c3cc(C)c(C)cc3[n+]2[O-])cc1OC`: the TGI was over 100 µM in the assay on LOX IMVI melanoma; over 100 µM in the assay on EKVX NSCLC; over 100 µM in the assay on OVCAR-5 ovarian; over 100 µM with OVCAR-8 ovarian; 37.8 µM in the assay with NCI-H522 lung; over 100 µM in the assay on M14 melanoma. Besides, the TGI with NCI-H226 lung and in the assay with SK-MEL-28 melanoma was over 100 µM each time.
On to `CC(NC1CCC[C@H]1O)c1ccccc1` (mixture of isomers), for which the TGI with LOX IMVI melanoma, in the assay with EKVX NSCLC, in the assay on OVCAR-8 ovarian, in the assay on NCI-H522 lung, in the assay on M14 melanoma and with NCI-H226 lung was over 100 µM each time. Moreover, the TGI with SK-MEL-28 melanoma was over 100 µM.
Regarding `COc1cc(C2C(C(=O)O)=C(C)Oc3cc4c(cc32)OCO4)cc(OC)c1OC` (configuration not stated), the TGI in the assay with LOX IMVI melanoma, in the assay on EKVX NSCLC, in the assay on OVCAR-8 ovarian, in the assay on M14 melanoma and in the assay with SK-MEL-28 melanoma was over 100 µM throughout.
Regarding `CN(C)CC1(C)CC/C(=C\c2ccc3c(c2)OCO3)C1=O` (configuration not stated), the TGI in the assay on LOX IMVI melanoma, with OVCAR-5 ovarian, in the assay with OVCAR-8 ovarian, in the assay with NCI-H522 lung, in the assay on M14 melanoma and in the assay with NCI-H226 lung was over 100 µM in each case. Moreover, the TGI with SK-MEL-28 melanoma was over 100 µM.
Regarding `CCCCCCCCCCCCCCCCCC(=O)NCCCNCCCNC(=O)CCCCCCCCCCCCCCCCC`, the concentration for total growth inhibition (TGI) in the assay on LOX IMVI melanoma, in the assay with OVCAR-5 ovarian, in the assay on OVCAR-8 ovarian, in the assay with M14 melanoma, in the assay on NCI-H226 lung and in the assay with SK-MEL-28 melanoma was over 100 µM in each case.
As for `Nc1nc(N)c(-c2ccccc2)c(C(=O)Nc2ccc(Cl)c(Cl)c2)n1`, the TGI with LOX IMVI melanoma, in the assay on EKVX NSCLC, with OVCAR-5 ovarian, in the assay with OVCAR-8 ovarian, with M14 melanoma and with NCI-H226 lung was over 100 µM each time. The compound also yielded a TGI with SK-MEL-28 melanoma of over 100 µM.
Consider `COCCN1C2=CCCCC2=Nc2c(N)nc(N)nc21`, for which the total growth inhibition concentration (TGI) with LOX IMVI melanoma, in the assay with OVCAR-5 ovarian, with OVCAR-8 ovarian, in the assay on NCI-H522 lung, in the assay on M14 melanoma and in the assay on NCI-H226 lung was over 100 µM each time. The same compound showed a TGI with SK-MEL-28 melanoma of over 100 µM.
`CC1CC2C3CC(F)C4=CC(=O)C=CC4(C)C3(F)C(O)CC2(C)C1(O)C(=O)CO` (configuration not stated): the TGI in the assay on LOX IMVI melanoma, in the assay with EKVX NSCLC, with NCI-H522 lung, in the assay on M14 melanoma, in the assay on NCI-H226 lung and in the assay on SK-MEL-28 melanoma was over 100 µM in each case.
Turning to `COC(=O)C(C(=O)C(=O)Nc1ccccc1OC)c1csc(-n2nc(-c3ccccc3)cc2-c2ccccc2)n1` (configuration not stated), the TGI with LOX IMVI melanoma, in the assay on EKVX NSCLC, with OVCAR-5 ovarian, in the assay on OVCAR-8 ovarian, with NCI-H522 lung and in the assay on M14 melanoma was over 100 µM throughout. This compound also registered a TGI in the assay on NCI-H226 lung of over 100 µM.
`CN/N=C(\C)CC(=O)Nc1cccc(Cl)c1C`: the TGI with LOX IMVI melanoma, with EKVX NSCLC, in the assay with OVCAR-5 ovarian, in the assay on OVCAR-8 ovarian, in the assay on NCI-H522 lung and in the assay with M14 melanoma was over 100 µM each time. The TGI in the assay with NCI-H226 lung and in the assay on SK-MEL-28 melanoma was over 100 µM throughout.
On to `COc1cc2c(cc1OC)-c1c(cc(OC)c(OC)c1OC)C2=O`, for which the TGI in the assay with LOX IMVI melanoma, in the assay with EKVX NSCLC, in the assay with OVCAR-5 ovarian, in the assay with OVCAR-8 ovarian, in the assay on NCI-H522 lung and in the assay on M14 melanoma was over 100 µM each time. In addition, the TGI in the assay on NCI-H226 lung and in the assay on SK-MEL-28 melanoma was over 100 µM in each case.
For the compound `CC1=CCC2(C#N)CCC1C2=O` (configuration not stated), the TGI with LOX IMVI melanoma, in the assay with EKVX NSCLC, in the assay with OVCAR-5 ovarian, in the assay with OVCAR-8 ovarian, in the assay with NCI-H522 lung and in the assay with M14 melanoma was over 100 µM each time. This compound returned a total growth inhibition concentration (TGI) in the assay with NCI-H226 lung of over 100 µM.
Turning to `C/C=C/C=C/[C@H]1Cc2cc(O)cc(O)c2O1`, the TGI with LOX IMVI melanoma, with EKVX NSCLC, in the assay with OVCAR-5 ovarian, with OVCAR-8 ovarian, in the assay with NCI-H522 lung and with M14 melanoma was over 100 µM throughout. This compound yielded a TGI in the assay with SK-MEL-28 melanoma of over 100 µM.
Turning to `CSc1s[s+]c(SC)c1[O-]`, the TGI in the assay on EKVX NSCLC is over 100 µM; with OVCAR-5 ovarian, over 100 µM; in the assay on OVCAR-8 ovarian, 43.7 µM; in the assay on NCI-H522 lung, 32.2 µM; in the assay on M14 melanoma, 75.8 µM; in the assay with NCI-H226 lung, over 100 µM. This compound also registered a TGI in the assay with SK-MEL-28 melanoma of 34.2 µM.
On to `O=C(O)C1Cc2nc[nH]c2CN1` (configuration not stated), for which the total growth inhibition concentration (TGI) in the assay with LOX IMVI melanoma, in the assay on EKVX NSCLC, in the assay with OVCAR-5 ovarian, with OVCAR-8 ovarian, in the assay with NCI-H522 lung and with M14 melanoma was over 100 µM each time. Also, the TGI with NCI-H226 lung and in the assay with SK-MEL-28 melanoma was over 100 µM throughout.
Consider `C=C(CO)CC(O)c1ccccc1` (configuration not stated), for which the TGI in the assay with LOX IMVI melanoma, in the assay on EKVX NSCLC, in the assay on OVCAR-5 ovarian, in the assay on OVCAR-8 ovarian, with NCI-H522 lung and with M14 melanoma was over 100 µM throughout. For the same compound, the TGI in the assay on NCI-H226 lung and in the assay with SK-MEL-28 melanoma was over 100 µM throughout.
For the compound `O=C1OC(=O)C2C3CCC(O3)C12` (configuration not stated), the total growth inhibition concentration (TGI) with EKVX NSCLC, with OVCAR-5 ovarian, in the assay with OVCAR-8 ovarian, with M14 melanoma, in the assay on NCI-H226 lung and in the assay with SK-MEL-28 melanoma was over 100 µM each time.
On to `Cc1ccccc1NC(=O)C(=O)Cc1nc2ccccc2s1`, for which the TGI with LOX IMVI melanoma, in the assay with OVCAR-5 ovarian, in the assay with OVCAR-8 ovarian, in the assay with NCI-H522 lung, in the assay on M14 melanoma and in the assay on NCI-H226 lung was over 100 µM throughout. This compound also gave a TGI in the assay with SK-MEL-28 melanoma of over 100 µM.
Consider `Cc1cccc(NC(=O)CC2C(=O)Nc3ccccc3S2(=O)=O)c1C` (configuration not stated), for which the TGI is over 100 µM in the assay with EKVX NSCLC; over 100 µM in the assay with OVCAR-5 ovarian; 44.4 µM in the assay on OVCAR-8 ovarian; 33.4 µM with NCI-H522 lung; over 100 µM in the assay with M14 melanoma; 58.3 µM with NCI-H226 lung. The same compound displayed a total growth inhibition concentration (TGI) in the assay with SK-MEL-28 melanoma of over 100 µM.
On to `Oc1cccc(C2SCc3nc4ccccc4n32)c1` (configuration not stated), for which the concentration for total growth inhibition (TGI) in the assay with EKVX NSCLC, in the assay with OVCAR-5 ovarian, with OVCAR-8 ovarian, in the assay with NCI-H522 lung, in the assay on NCI-H226 lung and with SK-MEL-28 melanoma was over 100 µM throughout.
On to `Cc1ccc(C(=O)/C=C/c2ccccc2Cl)cc1`, for which the TGI is 33.6 µM in the assay with EKVX NSCLC; 41.9 µM in the assay with OVCAR-5 ovarian; 29.6 µM with OVCAR-8 ovarian; 26.9 µM in the assay with NCI-H522 lung; 31.4 µM with M14 melanoma; 61 µM with NCI-H226 lung. Further, the concentration for total growth inhibition (TGI) with SK-MEL-28 melanoma amounted to 29.2 µM.
Consider `CC(C)OCN1COCN=C1NC#N`, for which the TGI in the assay on EKVX NSCLC, in the assay with OVCAR-5 ovarian, with OVCAR-8 ovarian, in the assay with NCI-H522 lung, in the assay with M14 melanoma and with NCI-H226 lung was over 100 µM in each case. Moreover, the TGI in the assay with SK-MEL-28 melanoma is over 100 µM.
Consider `O=C(O)/C(O)=C1/C=C(c2ccccc2)c2ccccc21`, for which the TGI came to 36.1 µM with LOX IMVI melanoma; 72.2 µM in the assay on OVCAR-5 ovarian; 59.4 µM with OVCAR-8 ovarian; 30.9 µM in the assay with NCI-H522 lung; 45.3 µM with M14 melanoma; 59.6 µM in the assay on NCI-H226 lung.
As for `O=C(C#Cc1c[nH]c(=O)[nH]c1=O)c1ccccc1`, the TGI in the assay with LOX IMVI melanoma was determined as 16.3 µM; with EKVX NSCLC, 24.9 µM; in the assay on OVCAR-5 ovarian it was 33.1 µM; in the assay with OVCAR-8 ovarian, 22.4 µM; in the assay with M14 melanoma it was 18 µM; with NCI-H226 lung, 63.9 µM. Moreover, the TGI in the assay with SK-MEL-28 melanoma came out at 22.9 µM.
With `CCCCCN(CCCCC)C(=O)[C@@H](CCC(=O)OCc1ccccc1)NC(=O)c1cc2ccccc2[nH]1`, the TGI in the assay on LOX IMVI melanoma, with EKVX NSCLC, in the assay on OVCAR-5 ovarian, with OVCAR-8 ovarian, in the assay on NCI-H522 lung and in the assay on M14 melanoma was over 100 µM in each case. In the assay with SK-MEL-28 melanoma, this compound registered a TGI of over 100 µM.
